Measured values as given in patent US20100048660A1, “TREATMENT OF DUCHENNE MUSCULAR DYSTROPHY” (priority 2006, published 2010).

tested on: Utrophin A promoter linked to a luciferase reporter gene (H2K/mdx/Utro A reporter cell line); experiment: Luciferase reporter assay (murine H2K cells); format: cell-based; conditions: Mus musculus; Table 1; murine H2K mdx myoblasts, compound final concentration 10 μM, 48 hrs; read-out: Activity (luciferase reporter assay, relative to control)
Method: 1. Luciferase Reporter Assay (Murine H2K Cells)
The cell line used for the screen is an immortalized mdx mouse H2K cell line that has been stably transfected with a plasmid containing ≈5 kb fragment of the Utrophin A promoter including the first untranslated exon linked to a luciferase reporter gene (see FIG. 1).
Under conditions of low temperature and interferon containing media, the cells remain as myoblasts. These are plated into 96 well plates and cultured in the presence of compound for three days. The level of luciferase is then determined by cell lysis and reading of the light output from the expressed luciferase gene utilising a plate luminometer.
The H2K/mdx/Utro A reporter cell line was passaged twice a week until ≦30% confluent. The cells were grown at 33° C. in the presence of 10% CO2
The H2K/mdx/Utro A reporter cell line cells were plated out into 96 well plates (Falcon 353296, white opaque) at a density of approximately 5000 cells/well in 190 μl normal growth medium. The plates were then incubated at 33° C. in the presence of 10% CO2 for 24 hrs.
Compounds were dosed by adding 10 μl of diluted compound to each well giving a final concentration of 10 μM. The plates were then incubated for a further 48 hrs
Cells were then lysed in situ following the manufacture's protocols (Promega Steady-Glo Luciferase Assay System (E2520). Then counted for 10 seconds using a plate luminometer (Victorl420).

| SMILES | activity at 10 µM |
| --- | --- |
| CCS(=O)(=O)c1ccc2nn(-c3ccc(Cl)c(Cl)c3)nc2c1 [Example 51, 2-(3′,4′-dichlorophenyl)-5-(ethylsulfonyl)-benzotriazole] | 301 to 400% |
| CCC(=O)Nc1cc2nn(-c3ccc(Cl)cc3)nc2cc1C [Example 7, N-(2-(4-chlorophenyl)-6-methyl-2H-benzo[d][1,2,3]triazol-5-yl)propionamide] | < 200% |
| CN1CCN(c2ccc(-n3nc4ccc(N)cc4n3)cc2)CC1 [Example 42, 2-(4-(4-methylpiperazin-1-yl)phenyl)-2H-benzo[d][1,2,3]triazol-5-amine] | < 200% |
| CCC(=O)Nc1cc2nn(-c3ccc(N(CC)CC)cc3)nc2cc1C [Example 14, N-(2-(4-(diethylamino)phenyl)-6-methyl-2H-benzo[d][1,2,3]triazol-5-yl)propionamide] | < 200% |
| Cc1cc2nn(-c3ccc(Cl)cc3)nc2cc1NC(=O)c1cccnc1 [Example 1, N-(2-(4-chlorophenyl)-6-methyl-2H-benzo[d][1,2,3]triazol-5-yl)nicotinamide] | 301 to 400% |
| Nc1ccc2nn(-c3ccc(N4CCCCC4)cc3)nc2c1 [Example 40, 2-(4-(piperidin-1-yl)phenyl)-2H-benzo[d][1,2,3]triazol-5-amine] | 201 to 300% |
| CS(=O)(=O)c1ccc2nn(-c3ccc(Cl)cc3)nc2c1 [Example 49, 2-(4-chlorophenyl)-5-(methylsulfonyl)-2H-benzo[d][1,2,3]triazole] | < 200% |
| CCN(CC)c1ccc(-n2nc3ccc(NC(=O)c4cccnc4)cc3n2)cc1 [Example 20, N-(2-(4-(diethylamino)phenyl)-2H-benzo[d][1,2,3]triazol-5-yl)nicotinamide] | 201 to 300% |
| CCN(CC)c1ccc(-n2nc3ccc(NC(=O)c4ccncc4)cc3n2)cc1 [Example 21, N-(2-(4-(diethylamino)phenyl)-2H-benzo[d][1,2,3]triazol-5-yl)isonicotinamide] | < 200% |
| Cc1cc2nn(-c3ccc(Cl)cc3)nc2cc1NC(=O)c1ccco1 [Example 11, N-(2-(4-chlorophenyl)-6-methyl-2H-benzo[d][1,2,3]triazol-5-yl)furan-2-carboxamide] | 201 to 300% |
| CC(C)S(=O)(=O)c1ccc2cn(-c3ccc(Cl)cc3)nc2c1 [Example 56, 2-(4′-Chlorophenyl)-6-(isopropylsulfonyl)-2H-indazole] | > 401% |
| Cc1cc2nn(-c3ccc(Cl)cc3)nc2cc1NC(=O)C(C)C [Example 10, N-(2-(4-chlorophenyl)-6-methyl-2H-benzo[d][1,2,3]triazol-5-yl)isobutyramide] | 201 to 300% |
| Cc1cc2nn(-c3ccc(Cl)cc3)nc2cc1NC(=O)c1ccncc1 [Example 2, N-(2-(4-chlorophenyl)-6-methyl-2H-benzo[d][1,2,3]triazol-5-yl)isonicotinamide] | 201 to 300% |
| CS(=O)(=O)c1ccc2nn(-c3ccc(Cl)cc3)[n+]([O-])c2c1 [Example 47, 2-(4-chlorophenyl)-6-(methylsulfonyl)-2H-benzo[d][1,2,3]triazole 1-oxide] | < 200% |

same assay, conditions: Mus musculus; Table 2; murine H2K mdx myoblasts, compound final concentration 10 μM, 48 hrs; read-out: Activity (luciferase reporter assay, relative to control)

| SMILES | activity at 10 µM |
| --- | --- |
| Cc1ccc(-n2nc3ccc(N)cc3n2)cc1C [Example 63, 2-(3,4-dimethylphenyl)-2H-benzo[d][1,2,3]triazol-5-amine] | < 200% |
| CCc1ccc(-n2nc3ccc(N)cc3n2)cc1 [Example 68, 2-(4-ethylphenyl)-2H-benzo[d][1,2,3]triazol-5-amine] | 201 to 300% |
| CCOc1ccc(-n2nc3cc(C)c(N)cc3n2)cc1 [Example 64, 2-(4-ethoxyphenyl)-6-methyl-2H-benzo[d][1,2,3]triazol-5-amine] | 201 to 300% |
| CC(=O)Nc1cc2nn(-c3ccccc3)nc2cc1C [Example 67, N-(6-methyl-2-phenyl-2H-benzo[d][1,2,3]triazol-5-yl)acetamide] | 201 to 300% |
| CC(=O)Nc1ccc2nn(-c3ccc(F)cc3)nc2c1 [Example 69, N-(2-(4-fluorophenyl)-2H-benzo[d][1,2,3]triazol-5-yl)acetamide] | 201 to 300% |
